The results in this text go back to patent publication US5279935A, “Method of immunossay including deactivation of endogenous alkaline phosphatase” (Becton, Dickinson and Company, priority 1990, dated 1994).

The test system of assay [1] is endogenous AP in uninfected MDCK cells. Further details: species or system canine.
Assay [2] deals with E. coli AP (Escherichia coli, UniProt P00634). Type of assay: biochemical.
Setting [3] is: 600 ng uninfected MDCK cells, acid wash 0.15M.
Setting [4] is: 4.8 units/test of E. coli AP spike, no antigen, acid wash 0.15M.
[5] abbreviates: 4.8 units/test of E. coli AP spike.

The structures appear in SMILES notation. Where two headings read alike, the source gives them in different places.

Sequence of E. coli AP (P00634 22-471): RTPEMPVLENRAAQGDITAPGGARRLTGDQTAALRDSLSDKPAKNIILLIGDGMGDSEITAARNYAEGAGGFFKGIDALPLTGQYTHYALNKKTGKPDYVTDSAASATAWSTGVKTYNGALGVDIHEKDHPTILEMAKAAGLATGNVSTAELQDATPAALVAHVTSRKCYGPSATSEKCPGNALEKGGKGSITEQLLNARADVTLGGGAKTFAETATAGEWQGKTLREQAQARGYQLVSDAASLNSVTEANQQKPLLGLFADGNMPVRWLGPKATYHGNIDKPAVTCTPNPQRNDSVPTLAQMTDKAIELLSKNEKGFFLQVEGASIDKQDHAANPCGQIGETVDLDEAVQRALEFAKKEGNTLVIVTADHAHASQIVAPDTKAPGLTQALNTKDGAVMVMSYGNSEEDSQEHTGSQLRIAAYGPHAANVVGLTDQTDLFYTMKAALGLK

Turning to `O=C(O)CCCC(=O)O` [B, glutaric acid], the “Reflectance (arbitrary units)” value in assay [1] (setting [3]) is “.10 arbitrary units”. Moreover, in assay [2] (setting [4]), the reflectance entry is recorded as “.06” and the visual result is on record as “(+)”.

For the molecule `O=C(O)CC(O)C(=O)O` (stereo not drawn) [E, malic acid], the “Reflectance (arbitrary units)” value in assay [1] (setting [3]) is listed as “.12 arbitrary units”. In addition, in assay [2] (setting [4]), the reflectance entry was “.06” and the visual entry was “(+)”.

As to `O=C(O)C(O)C(O)C(=O)O` (stereo not drawn) [C, tartaric acid], in assay [1] (setting [3]), the “Reflectance (arbitrary units)” value is “.10 arbitrary units”. Also, in assay [2] (setting [5]), the “reduction of signal due to the AP spike in comparison to the control (no acid)” value is recorded as “most effective”. Besides, the reflectance result in assay [2] (setting [4]) is recorded as “.04”.

Take `O=C(O)CCC(=O)O` [D, succinic acid]: the “Reflectance (arbitrary units)” value in assay [1] is reported as “.10 arbitrary units”. In assay [2], the reflectance entry was “.06” and the visual entry is “(+)”.

Regarding `O=C(O)CC(O)(CC(=O)O)C(=O)O` [A, citric acid], the “Reflectance (arbitrary units)” value in assay [1] (setting [3]) is on record as “.12 arbitrary units”. In addition, the “reduction of signal due to the AP spike in comparison to the control (no acid)” value in assay [2] (setting [5]) is recorded as “most effective”. For the same molecule, the reflectance result in assay [2] (setting [4]) is listed as “.03”.

In the case of `CC(O)C(=O)O` (stereo not drawn) [F, lactic acid], the “Reflectance (arbitrary units)” value in assay [1] (setting [3]) was “.12 arbitrary units”. For the same molecule, in assay [2] (setting [4]), the reflectance result is reported as “.06” and the visual result is “(+)”.
